# Measured values from PMC7824033, “Flavones, Flavonols, and Glycosylated Derivatives—Impact on Candida albicans Growth and Virulence, Expression of CDR1 and ERG11, Cytotoxicity” (Pharmaceuticals, 2020).
# “Also recorded” adds a separate entry of the source. Read-outs that look alike come from different tables or passages of the source.
# Legend:
# [1] = test system: C. albicans 475/15 biofilm formation; experiment: Inhibition of biofilm formation (crystal violet); type: cell-based, Candida albicans
# Experimental: Potential of selected compounds to interfere with C. albicans 475/15 biofilm formation was investigated as previously described. Briefly, C. albicans 475/15 was incubated with serial dilution of the compounds (MIC and subMICs) in YPD medium, in 96-well microtiter plates with adhesive bottom (Sarstedt, Nümbrecht, Germany), at 37 °C for 24 h. After incubation, wells were washed twice with sterile PBS and methanol was added into each well. After fixation, methanol was discarded, and the plate was air dried. Formed biofilms were stained with 0.1% crystal violet (Bio-Merieux, Craponne, France) for 30 min. The plate was gently washed under the tap of water and air dried. The stain bound to the remaining biofilms was dissolved with ethanol (96%, Zorka, Šabac, Serbia). Absorbance was read on a Multiskan™ FC Microplate Photometer, Thermo Scientific™. The percentage of inhibition of biofilm formation was calculated by the formula:[(A620control − A620sample)/A620control] × 100
# ERG11 = experiment: Expression of ERG11 (qPCR); type: cell-based, Candida albicans; details: treatment with MIC
# Experimental: (§1) Total RNA was isolated as described by Sanglard et al. with some modifications. C. albicans 475/15 was grown with agitation at 30 °C in YEPD until OD540 = 0.4. C. albicans cells were incubated with MIC of compounds in YEPD at 30 °C with agitation for 30 min. Cells were centrifuged (4600 rpm, 4 °C for 5 min (Rotanata 460 R, Hettich, Tuttlingen, Germany)) and the pellet was resuspended in 300 µL of RNA buffer (0.1 M Tris-HCl pH 7.5, 0.1M LiCl, 10mM EDTA, 0.5% SDS). The pellet was homogenized with 200 µL of DEPC treated glass beads and 300 µL of Phenol:Chloroform:Isoamyl Alcohol (Sigma-Aldrich, Darmstadt, Germany) in Precellys Evolution tissue homogenizer (Bertion instruments, Montigny-le-Bretonneux, France) at 4500 rpm for 5 s. After centrifugation (14,000 rpm, 4 °C, 1 min (Universal 32 R, Hettich, Tuttlingen, Germany)) 200 µL of supernatant was vortexed with 250 µL of Phenol:Chloroform:Isoamyl Alcohol for 10 s. Samples were centrifuged (14,000 rpm, 4 °C, 1 min) and 200 µL of supernatant was transferred to new tubes, 400 µL of ice-cold 99% ethanol was added to each tube, and they were kept on dry ice for 10 min. Samples were centrifuged (14,000 rpm, 4 °C, 2 min), pellet was washed with ethanol (70%), left to dry at room temperature, after which it was dissolved in 50 µL of DEPC treated water. Nanodrop (ND-1000, Witec AG, Sursee, Switzerland) was used for determination of concentration and purity of samples. RNA was stored at −80°C.
# (§2) Amount of 10 µg RNA was incubated with 5 µL of DNAse buffer and 1 µL of DNAse at 37 °C for 30 min (DNA-free™ DNA Removal Kit, Ambion, Bleiswijk, Netherlands). After addition of DNAse inactivation reagent tubes were kept at room temperature with occasional vortexing for 5 min. Samples were centrifuged (14,000 rpm, 4°C, 2 min) and the concentration and quality of supernatant were analyzed on Nanodrop (ND-1000, Witec AG, Sursee, Switzerland).
# (§3) Synthesis of cDNA was done with a Transcriptor High Fidelity cDNA synthesis kit (Roche). RNA (1 µg) was incubated with 60 µM random hexamer primers, in 11.4 µL of total sample volume, at 65 °C for 10 min. The mixture of Transcriptase reaction buffer 5×, Deoxynucleotide mix, DTT, Protector RNAse inhibitor, and Transcriptor High Fidelity Reverse Transcriptase was added to each tube according to manufacturer instructions. Synthesis of cDNA was completed by incubating the mixture at 50 °C for 30 min and 85 °C for 5 min (Peqstar thermocycler, Peqlab, Erlangen, Germany).
# (§4) Wells of MicroAmp Fast 96-Well Reaction plate ((0.1 mL), Applied biosystems, Waltham, MA, USA) were incubated with 10 µL of mixture (cDNA, 2× MasterMix, primers, probe (Table 3), and water). Analysis was performed in StepOnePlus Real Time PCR system with relative standard curve method. Expression levels of CDR1 and ERG11 were normalized to expression of ACT1.
# [2] = test system: non-tumor colon cell (IEC-18); set-up: method as in PMID 25359775; details: up to 150 μM; cited from earlier work
# CDR1 = experiment: Expression of CDR1 (qPCR); type: cell-based, Candida albicans; details: treatment with MIC
# Experimental: as §1, §2, §3, §4
# [3] = test system: C. albicans morphological transition; details: cited from earlier work
# S. aureus efflux = test system: S. aureus efflux; set-up: method as in PMID 25961825; details: S. aureus; cited from earlier work
# ALS1, ALS3, HWP1, SUN41 = details: ref 18; cited from earlier work
# [4] = test system: HUVE (human umbilical vein endothelial) cells; details: read-out: LC50; cited from earlier work
Compound,antibiofilm activity ([1]; MIC and subMICs),inhibition of biofilm formation ([1]; compound applied at MIC),inhibition of biofilm formation ([1]; compound applied at MIC/2),impact on ERG11 expression (words) (ERG11),"ERG11 expression level, Log2FC (ERG11; 30 min, normalized to ACT1)",impact on ERG11 expression (words) (ERG11; listed as isoquercitrin),cytotoxic effects [2],impact on CDR1 expression (CDR1),concentration leading to reduction of morphological transition ([3]; ref 18),concentration leading to reduction of morphological transition ([3]; ref 28),"IC50, efflux inhibition (S. aureus efflux)","ALS1, ALS3, HWP1 and SUN41 expression levels (ALS1, ALS3, HWP1, SUN41)",CC50 [4]
"O=c1c(O[C@@H]2O[C@H](CO)[C@@H](O)[C@H](O)[C@H]2O)c(-c2ccc(O)c(O)c2)oc2cc(O)cc(O)c12 [Isoquercitrin, isoquercitrin]",excellent activity; also recorded: notably lowered,76%,> 60%,increased expression levels,> 1 Log2FC,upregulated; also recorded: increased ERG11 expression,did not show cytotoxic effects,,,,,,
"O=c1c(O)c(-c2ccc(O)c(O)c2)oc2cc(O)cc(O)c12 [Quercetin, quercetin]",,,,,,,,did not exhibit any significant inhibitory potential,64 µg/mL,up to 200 µg/mL,75 µg/mL,reduced,61 µM
